Source: patent US20240226228A1, “ANTIMICROBIAL PEPTOID HAVING IMPROVED SELECTIVITY AND ANTIMICROBIAL COMPOSITION COMPRISING SAME” (priority 2021, published 2024)
Converted amounts (≈) assume the structure as drawn. Like-named read-outs stand apart in the source and are kept apart here. Where a SMILES comes first, the peptide text is derived from it. [ ]: non-standard residue; d: D form. Gly(N(CH2)2(3-indolyl)) = O=C(O)CNCCc1c[nH]c2ccccc12; Nspe = C[C@H](NCC(=O)O)c1ccccc1; Nlys = NCCCCNCC(=O)O

Tests used:
E. coli ATCC25922 = tested on: E. coli ATCC25922
Outline: (§1)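 Cation-adjusted MHB2 cultures (18 h, subcultured 4 h) adjusted to 2×10^5–5×10^5 CFU/mL in medium with 0.02% BSA and 0.001% acetic acid.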

S. aureus ATCC 25923 = tested on: S. aureus ATCC 25923
Outline: as §1

red blood cells = assay: Hemolysis assay; format: cell-based, Sprague-Dawley mouse
Outline: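 Peptoid is mixed with 10% (v/v) PBS-washed erythrocytes (male Sprague-Dawley […], 13 weeks) and held 1 h at 37 °C. Hemolysis is calculated from 540 nm absorbance of the supernatant, with PBS as 0% and Triton X-100 as 100%.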

[1] = Table 18, TFA salt vs counter ion-substituted (HCl, AcOH) peptoids
[2] = Tables 11-13, 24 hours at 37° C., maximum concentration 25 μM

SMILES | MIC E. coli ATCC25922 (E. coli ATCC25922; [1]) [µM] | MIC S. aureus ATCC 25923 (S. aureus ATCC 25923; [1]) [µM] | HC10 (red blood cells) | HC50 (red blood cells) | Hmax (100 μM) (red blood cells) [%] | MIC E. coli ATCC25922 (E. coli ATCC25922; [2]) [µM] | MIC S. aureus ATCC 25923 (S. aureus ATCC 25923; [2]) [µM]
C[C@@H](c1ccccc1)N(CC(N)=O)C(=O)CN(C(=O)CN(CCCCN)C(=O)CN(C(=O)CN(C(=O)CN(CCCCN)C(=O)CN(C(=O)CN(C(=O)CN(CCCCN)C(=O)CN(CCc1c[nH]c2ccccc12)C(=O)CN(CCc1c[nH]c2ccccc12)C(=O)CNCCCCN)[C@@H](C)c1ccccc1)[C@@H](C)c1ccccc1)[C@@H](C)c1ccccc1)[C@@H](C)c1ccccc1)[C@@H](C)c1ccccc1 [Peptoid 14-1] | 3.1 | 3.1 | 19.2 µM | 68.2 µM | 75.3 ± 5.0 |  | 
C[C@@H](c1ccccc1)N(CC(N)=O)C(=O)CN(C(=O)CN(CCCCN)C(=O)CN(C(=O)CN(C(=O)CN(CCCCN)C(=O)CN(C(=O)CN(C(=O)CN(CCCCN)C(=O)CN(CCc1c[nH]c2ccccc12)C(=O)CN(CCc1c[nH]c2ccccc12)C(=O)CNCCCCN)[C@@H](C)c1ccccc1)[C@@H](C)c1ccccc1)[C@@H](C)c1ccccc1)[C@@H](C)c1ccccc1)[C@@H](C)c1ccccc1 [Peptoid 14-2] | 3.1 | 1.6 | 14.9 µM | 51.8 µM | 100.7 ± 17.2 |  | 
C[C@@H](c1ccccc1)N(CC(N)=O)C(=O)CN(C(=O)CN(CCCCN)C(=O)CN(C(=O)CN(CCc1c[nH]c2ccccc12)C(=O)CN(CCCCN)C(=O)CN(CCc1c[nH]c2ccccc12)C(=O)CN(C(=O)CN(CCCCN)C(=O)CN(C(=O)CN(C(=O)CNCCCCN)[C@@H](C)c1ccccc1)[C@@H](C)c1ccccc1)[C@@H](C)c1ccccc1)[C@@H](C)c1ccccc1)[C@@H](C)c1ccccc1 [Peptoid 15-1] | 6.3 | 3.1 | 50.4 µM | > 100 µM | 33.4 ± 9.7 |  | 
C[C@@H](c1ccccc1)N(CC(N)=O)C(=O)CN(C(=O)CN(CCCCN)C(=O)CN(C(=O)CN(CCc1c[nH]c2ccccc12)C(=O)CN(CCCCN)C(=O)CN(CCc1c[nH]c2ccccc12)C(=O)CN(C(=O)CN(CCCCN)C(=O)CN(C(=O)CN(C(=O)CNCCCCN)[C@@H](C)c1ccccc1)[C@@H](C)c1ccccc1)[C@@H](C)c1ccccc1)[C@@H](C)c1ccccc1)[C@@H](C)c1ccccc1 [Peptoid 15-2] | 6.3 | 3.1 | 39.2 µM | > 100 µM | 34.1 ± 1.1 |  | 
C[C@@H](c1ccccc1)N(CC(=O)N(CCc1c[nH]c2ccccc12)CC(=O)N(CCCCN)CC(=O)N(CC(=O)N(CC(=O)N(CCCCN)CC(=O)N(CC(=O)N(CC(=O)N(CCCCN)CC(=O)N(CC(=O)N(CCc1c[nH]c2ccccc12)CC(N)=O)[C@@H](C)c1ccccc1)[C@@H](C)c1ccccc1)[C@@H](C)c1ccccc1)[C@@H](C)c1ccccc1)[C@@H](C)c1ccccc1)C(=O)CNCCCCN [Peptoid 16] (H-[Nlys][Nspe][Gly(N(CH2)2(3-indolyl))][Nlys][Nspe][Nspe][Nlys][Nspe][Nspe][Nlys][Nspe][Gly(N(CH2)2(3-indolyl))]-NH2) |  |  | 13.8 µM | 25.0 µM | 100.3 ± 1.7 | 6.3 (≈ 12 µg/mL) | 1.6 (≈ 3.04 µg/mL)
C[C@@H](c1ccccc1)N(CC(=O)N(CCCCN)CC(=O)N(CC(=O)N(CC(=O)N(CCCCN)CC(=O)N(CC(=O)N(CC(=O)N(CCCCN)CC(=O)N(CC(=O)N(CCc1c[nH]c2ccccc12)CC(N)=O)[C@@H](C)c1ccccc1)[C@@H](C)c1ccccc1)[C@@H](C)c1ccccc1)[C@@H](C)c1ccccc1)[C@@H](C)c1ccccc1)C(=O)CN(CCc1c[nH]c2ccccc12)C(=O)CNCCCCN [Peptoid 17] (H-[Nlys][Gly(N(CH2)2(3-indolyl))][Nspe][Nlys][Nspe][Nspe][Nlys][Nspe][Nspe][Nlys][Nspe][Gly(N(CH2)2(3-indolyl))]-NH2) |  |  | 18.0 µM | 39.7 µM | 87.3 ± 6.7 | 6.3 (≈ 12 µg/mL) | 1.6 (≈ 3.04 µg/mL)
C[C@@H](c1ccccc1)N(CC(=O)N(CCCCN)CC(=O)N(CC(=O)N(CC(=O)N(CCCCN)CC(=O)N(CCc1c[nH]c2ccccc12)CC(=O)N(CCc1c[nH]c2ccccc12)CC(N)=O)[C@@H](C)c1ccccc1)[C@@H](C)c1ccccc1)C(=O)CN(C(=O)CN(CCCCN)C(=O)CN(CCc1c[nH]c2ccccc12)C(=O)CN(CCc1c[nH]c2ccccc12)C(=O)CNCCCCN)[C@@H](C)c1ccccc1 [Peptoid 18] (H-[Nlys][Gly(N(CH2)2(3-indolyl))][Gly(N(CH2)2(3-indolyl))][Nlys][Nspe][Nspe][Nlys][Nspe][Nspe][Nlys][Gly(N(CH2)2(3-indolyl))][Gly(N(CH2)2(3-indolyl))]-NH2) |  |  | 14.3 µM | 37.8 µM | 103.5 ± 4.3 | 12.5 (≈ 24.7 µg/mL) | 3.1 (≈ 6.12 µg/mL)
C[C@@H](c1ccccc1)N(CC(N)=O)C(=O)CN(C(=O)CN(CCCCN)C(=O)CN(CCc1c[nH]c2ccccc12)C(=O)CN(CCc1c[nH]c2ccccc12)C(=O)CN(CCCCN)C(=O)CN(CCc1c[nH]c2ccccc12)C(=O)CN(CCc1c[nH]c2ccccc12)C(=O)CN(CCCCN)C(=O)CN(C(=O)CN(C(=O)CNCCCCN)[C@@H](C)c1ccccc1)[C@@H](C)c1ccccc1)[C@@H](C)c1ccccc1 [Peptoid 20] |  |  | 8.2 µM | 33.9 µM | 106.7 ± 3.5 | 6.3 (≈ 12.4 µg/mL) | 1.6 (≈ 3.16 µg/mL)
C[C@@H](c1ccccc1)N(CC(N)=O)C(=O)CN(C(=O)CN(CCCCN)C(=O)CN(C(=O)CN(C(=O)CN(CCCCN)C(=O)CN(CCc1c[nH]c2ccccc12)C(=O)CN(CCc1c[nH]c2ccccc12)C(=O)CN(CCCCN)C(=O)CN(CCc1c[nH]c2ccccc12)C(=O)CN(CCc1c[nH]c2ccccc12)C(=O)CNCCCCN)[C@@H](C)c1ccccc1)[C@@H](C)c1ccccc1)[C@@H](C)c1ccccc1 [Peptoid 21] |  |  | 23.2 µM | 64.9 µM | 83.7 ± 2.0 | 6.3 (≈ 12.4 µg/mL) | 1.6 (≈ 3.16 µg/mL)
C[C@@H](c1ccccc1)N(CC(=O)N(CCc1c[nH]c2ccccc12)CC(=O)N(CCCCN)CC(=O)N(CC(=O)N(CCc1c[nH]c2ccccc12)CC(=O)N(CCCCN)CC(=O)N(CC(=O)N(CCc1c[nH]c2ccccc12)CC(=O)N(CCCCN)CC(=O)N(CC(=O)N(CCc1c[nH]c2ccccc12)CC(N)=O)[C@@H](C)c1ccccc1)[C@@H](C)c1ccccc1)[C@@H](C)c1ccccc1)C(=O)CNCCCCN [Peptoid 22] (H-[Nlys][Nspe][Gly(N(CH2)2(3-indolyl))][Nlys][Nspe][Gly(N(CH2)2(3-indolyl))][Nlys][Nspe][Gly(N(CH2)2(3-indolyl))][Nlys][Nspe][Gly(N(CH2)2(3-indolyl))]-NH2) |  |  | 6.9 µM | 19.4 µM | 108.6 ± 1.1 | 12.5 (≈ 24.7 µg/mL) | 1.6 (≈ 3.16 µg/mL)
NCCCCNCC(=O)N(CCc1c[nH]c2ccccc12)CC(=O)N(CCc1c[nH]c2ccccc12)CC(=O)N(CCCCN)CC(=O)N(CCc1c[nH]c2ccccc12)CC(=O)N(CCc1c[nH]c2ccccc12)CC(=O)N(CCCCN)CC(=O)N(CCc1c[nH]c2ccccc12)CC(=O)N(CCc1c[nH]c2ccccc12)CC(=O)N(CCCCN)CC(=O)N(CCc1c[nH]c2ccccc12)CC(=O)N(CCc1c[nH]c2ccccc12)CC(N)=O [Peptoid 23] (H-[Nlys][Gly(N(CH2)2(3-indolyl))][Gly(N(CH2)2(3-indolyl))][Nlys][Gly(N(CH2)2(3-indolyl))][Gly(N(CH2)2(3-indolyl))][Nlys][Gly(N(CH2)2(3-indolyl))][Gly(N(CH2)2(3-indolyl))][Nlys][Gly(N(CH2)2(3-indolyl))][Gly(N(CH2)2(3-indolyl))]-NH2) |  |  | 17.1 µM | 45.2 µM | 72.2 ± 0.3 | 25 (≈ 53.3 µg/mL) | 1.6 (≈ 3.41 µg/mL)
C[C@@H](c1ccccc1)N(CC(N)=O)C(=O)CN(CCCCN)C(=O)CN(CCCCN)C(=O)CN(C(=O)CN(C(=O)CN(CCCCN)C(=O)CN(CCc1c[nH]c2ccccc12)C(=O)CN(C(=O)CN(CCCCN)C(=O)CN(C(=O)CN(C(=O)CNCCCCN)[C@@H](C)c1ccccc1)[C@@H](C)c1ccccc1)[C@@H](C)c1ccccc1)[C@@H](C)c1ccccc1)[C@@H](C)c1ccccc1 [Peptoid 24] |  |  | >100/>100 μM | >100/>100 μM | 1.5 ± 0.0 | >25 | 6.3 (≈ 11.5 µg/mL)
C[C@@H](c1ccccc1)N(CC(N)=O)C(=O)CN(C(=O)CN(CCCCN)C(=O)CN(C(=O)CN(CCCCN)C(=O)CN(CCCCN)C(=O)CN(CCc1c[nH]c2ccccc12)C(=O)CN(C(=O)CN(CCCCN)C(=O)CN(C(=O)CN(C(=O)CNCCCCN)[C@@H](C)c1ccccc1)[C@@H](C)c1ccccc1)[C@@H](C)c1ccccc1)[C@@H](C)c1ccccc1)[C@@H](C)c1ccccc1 [Peptoid 25] |  |  | >100/>100 μM | >100/>100 μM | 2.7 ± 0.4 | >25 | 3.1 (≈ 5.66 µg/mL)
C[C@@H](c1ccccc1)N(CC(N)=O)C(=O)CN(C(=O)CN(CCCCN)C(=O)CN(C(=O)CN(C(=O)CN(CCCCN)C(=O)CN(CCc1c[nH]c2ccccc12)C(=O)CN(CCCCN)C(=O)CN(CCCCN)C(=O)CN(C(=O)CN(C(=O)CNCCCCN)[C@@H](C)c1ccccc1)[C@@H](C)c1ccccc1)[C@@H](C)c1ccccc1)[C@@H](C)c1ccccc1)[C@@H](C)c1ccccc1 [Peptoid 26] |  |  | >100/>100 μM | >100/>100 μM | 0.7 ± 0.1 | >25 | 6.3 (≈ 11.5 µg/mL)
